Laboratory results: US7794795B2, “Hybrid anti-fouling coating compositions and methods for preventing the fouling of surfaces subjected to a marine environment” (The Research Foundation of State University of New York, priority 2003, dated 2010)

Key:
[1] = Thiol peroxidase activity: oxidation of PhSH with H2O2, stopped-flow; conditions: for k0, initial linear increase in absorbance: PhSH 1 × 10^−3 M, H2O2 3.75 × 10^−3 M, catalyst 1 × 10^−5 M, MeOH (5% CH2Cl2; 46% for 22), 276.8 K, 305 nm; for v0 (rel): relative to 23a = 1; for v0, initial rate of oxidation of PhSH: same conditions, k0 corrected for the uncatalyzed reaction
Description: (§1) All stopped-flow experiments were performed on a SX18 Stopped-Flow Spectrometer (Applied Photophysics, Leatherhead, UK). The sample-handling unit was fitted with two drive syringes that are mounted inside a thermostatted-bath compartment, which allowed for variable temperature experimentation. The optical detection cell was set up in the 2-mm pathlength. First- and second-order curve fitting and rate constants used a Marquardt algorithm (Marquardt, J. Soc. Indust Appl. Mathematics, 11:431 et al. (1963), which is hereby incorporated by reference in its entirety) based on the routine Curfit (Bevington, Data Reduction and Error Analysis for the Physical Sciences, McGraw-Hill, New York (1969), which is hereby incorporated by reference in its entirety).
Stock solutions of 2.0×10^−3 M of catalyst in CH2Cl2 and 5.0×10^−2 M PhSH in CH2Cl2 were prepared. These were diluted with MeOH to give a 5% CH2Cl21MeOH solution of 2.0×10^−5 M telluride and 2.0×10^−3 PhSH. A stock solution of 7.50×10^−3 M H2O2 in MeOH was prepared. These two solutions were mixed in the stopped-flow spectrometer to give concentrations of 1.0×10^−5 M telluride, 1.0×10^−3 M PhSH, and 3.75×10^−3 M H2O2 and the increase in absorbance at 305 nm was measured. The concentration of H2O2 in the stock solution was determined from the absorbance at 240 nm (E=43.6 cm^−1 M^−1) (Riley et al., Endocrinology, 128:1749 et al. (1991); Zhao et al., Biochemistry, 40:10832 et al. (2001), which are hereby incorporated by reference in their entirety). The values in Table 1 are the average of 7-10 independent runs (± standard deviation).
In earlier work with dendrimeric organotelluride catalysts for the oxidation of halide salts with H2O2 (Francavilla et al., J. Am. Chem. Soc., 123:57 et al. (2001), which is hereby incorporated by reference in its entirety), a two-phase system of CH2Cl2 and pH-6 buffer was employed, which kept the catalysts and substrate in solution. In order to evaluate the catalysts in a homogeneous system, the method of Tomoda et al. (Iwaoka et al., J. Am. Chem. Soc., 116:2557 et al. (1994); Mugesh et al., J. Am. Chem. Soc., 123:839 et al. (2001), which are hereby incorporated by reference in their entirety) was employed to measure thiol peroxidase activity. In this procedure, thiophenol (PhSH) is oxidized to diphenyl disulfide (PhSSPh) using H2O2 as the oxidant. Catalytic activity was determined by the initial rates for the oxidation of PhSH (1.0×10^−3 M) with H2O2 (3.75×10^−3 M) in MeOH in the presence of a catalyst at a standard concentration of 1.0×10^−5 M.
A 5% CH2Cl2/MeOH solution of catalyst (9, 15, 20, 23, or 24 at 2.0×10^−5M) and PhSH (2.0×10^−3 M) was mixed with an equal volume of a 5% CH2Cl21MeOH solution of H2O2 (7.5×10^−3 M) in a stopped-flow spectrophotometer at 276.8±0.4 K to give final concentrations of […] catalyst, 1.0×10^−3 M PhSH, and 3.75×10^−3M H2O2. The rate of appearance of PhSSPh, with a molar extinction coefficient, ε, of […] at 305 nm (Mugesh et al., J. Am. Chem. Soc., 123:839 et al. (2001), which is hereby incorporated by reference in its entirety), was monitored at 305 nm. The 5% CH2Cl2 was added to keep the tellurides/oxidized tellurides in solution during the course of the reaction. For hexatellurides 22, the percentage of CH2Cl2 was increased to 46% (by volume) in both solutions to keep the dendrimers in solution during the time-course of the analysis.
A slow, uncatalyzed background reaction was observed upon mixing the two solutions in the stopped-flow spectrometer without added catalyst. Values of k0 were corrected for the uncatalyzed background reaction and converted to initial velocities, ν0, in units of […] min^−1 (Table 1). Values of ν0 as a function of the number of catalytic groups is plotted in FIG. 20.

[2] = Oxidation of monotellurides with H2O2, stopped-flow, pseudo first-order; conditions: for observed rate constant for oxidation: 1.03×10^−3 M telluride, 1.03×10^−2 M H2O2, 276.8 K, 5% CH2Cl2/MeOH; for second-order rate constant for oxidation: same conditions
Description: as §1
Stock solutions of 2.06×10^−3M telluride and 2.06×10^−2 M H2O2 in 5% CH2Cl2/MeOH were prepared. These two solutions were mixed in the stopped-flow spectrometer to give concentrations of 1.03×10^−3M telluride and 1.03×10^−2 M H2O2 and the increase in absorbance at 325 nm for 23a, 350 nm for 23b, and 352 nm for 24 was measured as a function of time for 7-10 independent runs (1 standard deviation).
The rates of oxidation of monotellurides 23 and 24 were followed in the stopped-flow spectrometer under pseudo first-order conditions. Final concentrations of 1.03×10^−3 M telluride and 1.03×10^−2 M H2O2 at 276.8±0.4 K gave observed rate constants for oxidation of (1.10±0.01)×10^−1 s^−1 for 23a, (3.62±0.02)×10^−1 s^−1 for 23b, and (4.5±0.4)×10^−1 for 24, which correspond to second-order rate constants of 10.7±0.1 M^−1 s^−1 for 23a, 35.1±0.2 M^−1 s^−1 for 23b, and 44±4 M^−1 s^−1 for 24.

Compound | k0, initial linear increase in absorbance [1] | v0 (rel) [1] | v0, initial rate of oxidation of PhSH [1] | observed rate constant for oxidation [2] | second-order rate constant for oxidation [2] [M⁻¹ s⁻¹]
CN(C)c1ccc([Te]CCCOc2cc(CO)cc(OCCC[Te]c3ccc(N(C)C)cc3)c2)cc1 [9b, 3,5-Bis[3-(4-dimethylaminophenyltelluro)propyloxy]benzyl Alcohol] | (1.69 ± 0.05) × 10^−4 ΔA s^−1 | 3.3 | (4.0 ± 0.1) × 10^1 μM min^−1 |  | 
OCc1cc(OCCC[Te]c2ccccc2)c(OCCC[Te]c2ccccc2)c(OCCC[Te]c2ccccc2)c1 [compound 15a, 3,4,5-Tris[3-(phenyltelluro)propyloxy]benzyl Alcohol] | (1.14 ± 0.02) × 10^−4 ΔA s^−1 | 2.2 | (2.66 ± 0.05) × 10^1 μM min^−1 |  | 
CCCCCC[Te]CCCOc1cc(CO)cc(OCCC[Te]CCCCCC)c1 [compound 9c, 3,5-Bis[3-(n-hexyltelluro)propyloxy]benzyl Alcohol] | (2.90 ± 0.06) × 10^−4- ΔA s^−1 | 5.8 | (6.9 ± 0.1) × 10^1 μM min^−1 |  | 
CCCCCC[Te]CCCOc1cc(COc2cc(CO)cc(OCc3cc(OCCC[Te]CCCCCC)cc(OCCC[Te]CCCCCC)c3)c2)cc(OCCC[Te]CCCCCC)c1 [20c, 3,5-Bis(3,5-bis[3-(n-hexyltelluro)propyloxy]benzyloxy)benzyl Alcohol] | (5.47 ± 0.07) × 10^−4 ΔA s^−1 | 11 | (1.31 ± 0.01) × 10^2 μM min^−1 |  | 
CCCCCC[Te]CCCCCC [compound 24, Di-n-hexyltelluride, reference compound] | (1.53 ± 0.09) × 10^−4 ΔA s^−1 | 3.0 | (3.6 ± 0.2) × 10^1 μM min^−1 | (4.5±0.4)×10^−1 s^−1 | 44 ± 4
CN(C)c1ccc([Te]CCCOc2cc(CO)cc(OCCC[Te]c3ccc(N(C)C)cc3)c2OCCC[Te]c2ccc(N(C)C)cc2)cc1 [15b, 3,4,5-Tris[3-(4-dimethylaminophenyltelluro)propyloxy]benzyl Alcohol] | (3.15 ± 0.03) × 10^−4 ΔA s^−1 | 6.3 | (7.49 ± 0.07) × 10^1 μM min^−1 |  | 
OCc1cc(OCCC[Te]c2ccccc2)cc(OCCC[Te]c2ccccc2)c1 [compound 9a, 3,5-Bis[3-(phenyltelluro)propyloxy]benzyl Alcohol] | (8.8 ± 0.5) × 10^−5 ΔA s^−1 | 1.7 | (2.0 ± 0.1) × 10^1 μM min^−1 |  | 
CCCCCC[Te]CCCOc1cc(COc2ccc(C(C)(c3ccc(OCc4cc(OCCC[Te]CCCCCC)cc(OCCC[Te]CCCCCC)c4)cc3)c3ccc(OCc4cc(OCCC[Te]CCCCCC)cc(OCCC[Te]CCCCCC)c4)cc3)cc2)cc(OCCC[Te]CCCCCC)c1 [22c, 1,1,1-Tris[4-(3,5-bis[3-(n-hexyltelluro)propyloxy]benzyloxy)phenyl]-ethane] | (1.30 ± 0.01) × 10^−3 ΔA s^−1 | 26 |  |  | 
CN(C)c1ccc(CCCOc2cc(COc3ccc(C(C)(c4ccc(OCc5cc(OCCCc6ccc(N(C)C)cc6)cc(OCCCc6ccc(N(C)C)cc6)c5)cc4)c4ccc(OCc5cc(OCCCc6ccc(N(C)C)cc6)cc(OCCCc6ccc(N(C)C)cc6)c5)cc4)cc3)cc(OCCCc3ccc(N(C)C)cc3)c2)cc1 [22b, 1,1,1-Tris[4-(3,5-bis[3-(4-N,N-dimethylaminophenyl)propyloxy]benzyloxy)phenyl]ethane] | (5.6 ± 0.1) × 10^−4 ΔA s^−1 | 11 | (1.34 ± 0.02) × 10^2 μM min^−1 |  | 
CN(C)c1ccc([Te]CCCOc2ccccc2)cc1 [compound 23b, 1-phenoxy-3-[4-(N,N-dimethylamino)phenyltelluro]propane] | (1.06 ± 0.05) × 10^−4 ΔA s^−1 | 2.1 | (2.5 ± 0.1) × 10^1 μM min^−1 | (3.62±0.02)×10^−1 s^−1 | 35.1 ± 0.2
CN(C)c1ccc([Te]CCCOc2cc(COc3cc(CO)cc(OCc4cc(OCCC[Te]c5ccc(N(C)C)cc5)cc(OCCC[Te]c5ccc(N(C)C)cc5)c4)c3)cc(OCCC[Te]c3ccc(N(C)C)cc3)c2)cc1 [compound 20b, 3,5-Bis(3,5-bis[3-(4-dimethylaminophenyltelluro)propyloxy]benzyloxy)benzyl Alcohol] | (3.13 ± 0.05) × 10^−4 ΔA s^−1 | 6.3 | (7.4 ± 0.1) × 10^1 μM min^−1 |  | 
OCc1cc(OCc2cc(OCCC[Te]c3ccccc3)cc(OCCC[Te]c3ccccc3)c2)cc(OCc2cc(OCCC[Te]c3ccccc3)cc(OCCC[Te]c3ccccc3)c2)c1 [compound 20a, 3,5-Bis(3,5-bis[3-(phenyltelluro)propyloxy]benzyloxy)benzyl Alcohol] | (1.81 ± 0.05) × 10^−4 ΔA s^−1 | 3.6 | (4.3 ± 0.1) × 10^1 μM min^−1 |  | 
CCCCCC[Te]CCCOc1cc(CO)cc(OCCC[Te]CCCCCC)c1OCCC[Te]CCCCCC [compound 15c, 3,4,5-Tris[3-(n-hexyltelluro)propyloxy]benzyl Alcohol] | (4.00 ± 0.05) × 10^−4 ΔA s^−1 | 7.9 | (9.5 ± 0.1) × 10^1 μM min^−1 |  | 
c1ccc(OCCC[Te]c2ccccc2)cc1 [compound 23a, 1-Phenoxy-3-(phenyltelluro)propane] | (5.3 ± 0.4) × 10^−5 ΔA s^−1 | 1 |  | (1.10±0.01)×10^−1 s^−1 | 10.7 ± 0.1
